Measurements: US5185352A, “Alkoxy-4(1H)-pyridone derivatives, processes for the preparation thereof and pharmaceutical compositions containing them” (Goedecke Aktiengesellschaft, priority 1988, dated 1993)
Where a name gives a salt, the structure may show the parent alone.

Target: calcium- and phospholipid-dependent protein kinase (PKC)
Assay: Inhibition of the activity of protein kinase C (incorporation of P^32-labelled phosphate into histone H-1)
Type: biochemical
Conditions: PKC enriched from rat brain; histone H-1 substrate; 5 min, 30° C.; pH 7.5
From the text: For the clarification of the inhibiting influence of compounds of formula I according to the present invention on the calcium- and phospholipid-dependent protein kinase (PKC), this enzyme activity was enriched from rat brain. Using the purification steps described in the literature (J. Biol. Chem., 260, 15718-15722/1985), in the case of a purification consisting of two steps, there was utilized the property of the enzyme to bind to cell membranes in the presence of calcium and to be dissolved off again by calcium chelators (EGTA). In the first enrichment step, there took place the binding of the PKC to membranes of the rat brain and in the second step on so-called inside-out vesicles or erythrocytes. After dissolving off from the erythrocyte membranes and rebuffering, the PKC preparation was present in 10 mM HEPES, 1 mM DTT, 0.1% PEG 20000, pH 7.5. Under these conditions, it could be stored at -70° C. for several months without loss of activity.
The activity of the enzyme was determined via the incorporation of P^32 -labelled phosphate into the protein histone H-1 (Sigma Type III) which can be phosphorylated by PKC.
The test thereby contains the following components: 50 mM HEPES-NaOH (pH 7.5), 5 mM magnesium chloride, 1 mM DTT, 4 μm. free calcium ions, 10 μMaTP, 1 μg phosphatidylserine, 0.2 μg 1,2-diolein, as well as 40 μg histone H-1 and optionally the test substance.
The batch is preincubated for 4 minutes at 30° C. and the reaction then started by the addition of 5 nM PKC. After incubating for 5 minutes at 30° C., the reaction is stopped with 10% TCA and the samples then filtered off. The phosphate incorporation is determined by Cerenkov counting in a scintillation counter. The kinase activity measured in the absence of the test substance was, in each case, taken as being 100% and the inhibiting action of the compounds of formula I referred thereto as percentages.

Compound	IC50 [nM]
CCCCCCCCCCCCCCCCCCOc1cn(Cc2ccccc2)c(CNCCCNC(C)c2ccccc2)cc1=O (racemic) [Example 83, (±)-1-Benzyl-5-octadecyloxy)-2-{N-[3-(1-phenylethyl)aminopropyl]-aminomethyl}-4(1H)-pyridone·trihydrochloride]	2600
CCCCCCCCCCCCCCCCCCOc1cn(Cc2ccccc2)c(CN2CCN(C(C)c3ccccc3)CC2)cc1=O (racemic) [Example 97, (±)-1-[(1-Benzyl-5-octadecyloxy-4(1H)-pyridone-2-yl)methyl]-4-(1-phenylethyl)piperazine·trihydrochloride 3/4 H2 O]	4400
CCCCCCCCCCCCCCCCCCOc1cn(C(C)c2ccccc2)c(CN2CCN(Cc3ccccc3)CC2)cc1=O (racemic) [Example 98, (±)-1-[(5-Octadecyloxy-1-(1-phenylethyl)-4(1H)-pyridone-2-yl)-methyl]-4-benzylpiperazine]	5400
CCCCCCCCCCCCCCCCCCOc1cn(Cc2ccccc2)c(CN2CCNCC2C)cc1=O (racemic) [Example 102, (±)-1-[(1-Benzyl-5-octadecyloxy-4(1H)-pyridon-2-yl)methyl]-2-methylpiperazine fumarate]	2000
CCCCCCCCCCCCCCCCCCOc1cn(C(C)c2ccccc2)c(CN2CCN(Cc3ccccc3)CC2)cc1=O (single isomer, unassigned; (+)) [Example 100, (+)-1-[(5-Octadecyloxy-1-(1-phenylethyl)-4(1H)-pyridone-2-yl)-methyl]-4-benzylpiperazine]	2700
CCCCCCCCCCCCCCCCCCOc1cn(C(C)c2ccccc2)c(CN2CCN(Cc3ccccc3)CC2)cc1=O (single isomer, unassigned; (-)) [Example 99, (-)-1-[(5-Octadecyloxy-1-(1-phenylethyl)-4(1H)-pyridone-2-yl)-methyl]-4-benzylpiperazine]	5200
CCCCCCCCCCCCCCCCCCOc1cn(CCCN(C)C)c(CO)cc1=O [Example 21, 1-(3-Dimethylaminopropyl)-2-hydroxymethyl-5-octadecyloxy-4(1H)-pyridone]	2400
CCCCCCCCCCCCCCCCCCOc1cn(C)c(CNCCCN(C)C)cc1=O [Example 56, 2-[N-(3-Dimethlaminopropyl)-aminomethyl]-1-methyl-5-octadecyloxy-4(1H)-pyridone trihydrochloride hemihydrate]	2900
CCCCCCCCCCCCCCCCCCOc1cn(Cc2ccccc2)c(CN(C)CCN(C)C)cc1=O [Example 57, 1-Benzyl-2-[N-(2-dimethylaminoethyl)-N-methylaminomethyl]-5-octadecyloxy-4(1H)-pyridone trihydrochloride]	1900
CCCCCCCCCCCCCCCCCCOc1cn(CCC)c(CNCCCN(C)C)cc1=O [Example 59, 2-[N-(3-Dimethylaminopropyl)aminomethyl]-5-octadecyloxy-1-propyl-4(1H)-pyridone dioxalate]	2900
CCCCCCCCCCCCCCCCCCOc1cn(C)c(CNCCCN)cc1=O [Example 60, 2-[N-(3-Aminopropyl)-aminomethyl]-1-methyl-5-octadecyloxy-4(1H)-pyridone trihydrochloride]	2700
CCCCCCCCCCCCCCCCCCOc1cn(Cc2ccccc2)c(CNCCCN)cc1=O [Example 61, 2-[N-(3-Aminopropyl)-aminomethyl]-1-benzyl-5-octadecyloxy-4(1H)-pyridone trihydrochloride]	2100
CCCCCCCCCCCCCCOc1cn(Cc2ccccc2)c(CNCCCN(C)C)cc1=O [Example 65, 1-Benzyl-2-[N-(3-dimethylaminopropyl)aminomethyl]-5-tetradecyloxy-4(1H)-pyridone dioxalate monohydrate]	6500
CCCCCCCCCCCCCCCCCCCCOc1cn(Cc2ccccc2)c(CNCCCN(C)C)cc1=O [Example 66, 1-Benzyl-2-[N-(3-dimethylaminopropyl)aminomethyl]-5-eicosanyloxy-4(1H)-pyridone dioxalate monohydrate]	2500
